Data published in patent US11279733B2, “Peptide antibiotics” (priority 2017, dated 2022).
Values after ≈ are worked out from the molar mass of the structure shown. Like-named read-outs stand apart in the source and are kept apart here. Positions of bridges follow the written chain, without caps; N, C: chain ends. Non-standard residues stand in square brackets, D forms with d. Residues, ends and D or L forms follow the SMILES beside them. *: point of attachment. Decanoyl(3R-OH) = CCCCCCC[C@@H](O)CC(=O)*; Lauroyl = CCCCCCCCCCCC(=O)*; dOrn = NCCC[C@@H](N)C(=O)O; dDab = NCC[C@@H](N)C(=O)O; Nle = CCCC[C@H](N)C(=O)O; dDap = NC[C@@H](N)C(=O)O; Dab = NCC[C@H](N)C(=O)O; Nva = CCC[C@H](N)C(=O)O; Dap = NC[C@H](N)C(=O)O

Key:
E. coli ATCC 25922 = settings: ATCC 25922
Outline: (§1)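 Mid-log cultures grown in Mueller Hinton broth at 37° C were tested by 2-fold broth microdilution at 5×10^5 CFU/mL final. Compounds were dissolved in water and tested over a final range of 32 to 0.015 μg/mL.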

A. baumannii GN_093 PmxR = settings: GN 093 PmxR
Outline: as §1

[1] = system: P. aeruginosa GN_105, PmxR; settings: GN 105, PmxR
Outline: as §1

A. baumannii ATCC 19606 = settings: ATCC 19606
Outline: as §1

K. pneumoniae ATCC 13883 = settings: ATCC 13883
Outline: as §1

[2] = system: K. pneumoniae GN_106, PmxR; settings: GN 106, PmxR
Outline: as §1

[3] = system: K. pneumoniae ATCC BAA-2146, NDM-1 pos; settings: ATCC BAA-2146
Outline: as §1

[4] = system: P. aeruginosa GN_043, PmxR
Outline: as §1

P. aeruginosa ATCC 27853 = settings: ATCC 27853
Outline: as §1

[5] = system: S. aureus ATCC 25923, MSSA; settings: ATCC 25923
Outline: as §1

[6] = system: K. pneumoniae ATCC 700603, MDR; settings: ATCC 700603
Outline: as §1

[7] = system: K. pneumoniae GN_102 PmxR; settings: GN 102 PmxR
Outline: as §1

in vitro = settings: human
Description: Cytotoxicity of the synthesised peptides was evaluated by comparison with commercially available colistin (polymyxin E), polymyxin B (Sigma chemical Co., St. Louis, Mo., U.S.A.) and synthetic octapeptin C4 by conducting lactate dehydrogenase (LDH) assay. CC50 values calculated based on curve fitting of dose dependent inhibition of cell growth represented the cytotoxicity of the peptide. Human kidney 2 (HK2) cells were seeded as 2000 cells per well in a 384 well cell culture plate in a final volume of 20 μL in DMEM/F12 medium (Invitrogen #11330057), in which 10% of FBS was added. Cells were incubated for 24 hours at 37° C., 5% CO2 to allow cells to attach to the plates. Similar conditions were employed for HEK293 and HepG2 cytotoxicity assays.
Cytotoxicity to HEK293 and HepG2 cells was determined using the resazurin assay (McMillian, M. K.; Li, L.; Parker, J. B.; Patel, L.; Zhong, Z.; Gunnett, J. W.; Powers, W. J.; Johnson, M. D. An improved resazurin-based cytotoxicity assay for hepatic cells; Cell Biol. Toxicol. 2002, 18, 157-173; O'Brien, J.; Wilson, I.; Orton, T.; Pognan, F. Investigation of the Alamar Blue (resazurin) fluorescent dye for the assessment of mammalian cell cytotoxicity. Eur. J. Biochem. 2000, 267, 5421-5426). In brief, HEK293 and HepG2 cells were seeded at 4000 cells/well in black-wall, clear-bottom 384-well plates (Corning, Australia) and incubated for 24 h at 37° C., 5% CO2. Compounds were then added into each well. After 24 h incubation, 5 μM resazurin was added per well and incubated at 37° C. for 2 h. Fluorescence intensity was then read using a Polarstar Omega with excitation/emission 560/590. The data was then analyzed using GraphPad Prism 6 software. CC50 values were determined using GraphPad Prism 6 software (Inc. La Jolla, Calif.).

SMILES	MIC E. coli ATCC 25922 (E. coli ATCC 25922)	MIC A. baumannii GN_093 PmxR (A. baumannii GN_093 PmxR)	MIC P. aeruginosa GN_105, PmxR [1]	MIC A. baumannii ATCC 19606 (A. baumannii ATCC 19606)	MIC K. pneumoniae ATCC 13883 (K. pneumoniae ATCC 13883)	MIC K. pneumoniae GN_106, PmxR [2]	MIC K. pneumoniae ATCC BAA-2146, NDM-1 pos [3]	MIC P. aeruginosa ATCC 27853 (P. aeruginosa ATCC 27853)	MIC K. pneumoniae ATCC 700603, MDR [6]	MIC K. pneumoniae GN_102 PmxR [7]	CC50 at 24 h (in vitro)	MIC P. aeruginosa GN_043, PmxR ([4]; P. aeruginosa GN_043, PmxR)	other results
CCCCCCC[C@@H](O)CC(=O)N[C@@H](CCN)C(=O)N[C@H]1CCNC(=O)[C@H](CC(C)C)NC(=O)[C@H](CN)NC(=O)[C@H](CCN)NC(=O)[C@H](CC(C)C)NC(=O)[C@@H](Cc2ccccc2)NC(=O)[C@H](CCN)NC1=O [compound 5564, 3(R)OH-nC9CO-L-Dab-cyc[L-Dab-L-Dab-D-Phe-L-Leu-L-Dab-L-Dap-L-Leu]] ({Decanoyl(3R-OH)}-[Dab][Dab][Dab][dF]L[Dab][Dap]L; lactam 2-C)	8 µg/mL (≈ 7.76 µM)	32 µg/mL (≈ 31.1 µM)	32 µg/mL (≈ 31.1 µM)	>32 µg/mL	8 µg/mL (≈ 7.76 µM)	8 µg/mL (≈ 7.76 µM)	8 µg/mL (≈ 7.76 µM)	2 µg/mL (≈ 1.94 µM)	16 µg/mL (≈ 15.5 µM)	4 µg/mL (≈ 3.88 µM)	> 300 µM		MIC P. aeruginosa GN_043, PmxR ([4]; polymyxin-resistant): 2 µg/mL (≈ 1.94 µM); MIC S. aureus ATCC 25923, MSSA [5]: 32 µg/mL (≈ 31.1 µM)
CCCCCCC[C@@H](O)CC(=O)N[C@H](CCN)C(=O)N[C@H]1CCNC(=O)[C@H](Cc2c[nH]cn2)NC(=O)[C@H](CCN)NC(=O)[C@H](CCN)NC(=O)[C@H](CC(C)C)NC(=O)[C@@H](Cc2ccccc2)NC(=O)[C@H](CCN)NC1=O [compound 8911, 3(R)OH-nC9CO-D-Dab-cyc[L-Dab-L-Dab-D-Phe-L-Leu-L-Dab-L-Dab-L-His]] ({Decanoyl(3R-OH)}-[dDab][Dab][Dab][dF]L[Dab][Dab]H; lactam 2-C)	8 µg/mL (≈ 7.49 µM)	>32 µg/mL	16 µg/mL (≈ 15 µM)	>32 µg/mL	>32 µg/mL	32 µg/mL (≈ 30 µM)	16 µg/mL (≈ 15 µM)	2 µg/mL (≈ 1.87 µM)	8 µg/mL (≈ 7.49 µM)	>32 µg/mL	> 300 µM		MIC P. aeruginosa GN_043, PmxR ([4]; polymyxin-resistant): 2 µg/mL (≈ 1.87 µM); MIC S. aureus ATCC 25923, MSSA [5]: >32 µg/mL
CCCCCCC[C@@H](O)CC(=O)N[C@H](CCCN)C(=O)N[C@H]1CCNC(=O)[C@H](CC(C)C)NC(=O)[C@H](CCN)NC(=O)[C@H](CCN)NC(=O)[C@H](CC(C)C)NC(=O)[C@@H](Cc2ccccc2)NC(=O)[C@H](CCN)NC1=O [compound 6443, 3(R)OH-nC9CO-D-Orn-cyc[L-Dab-L-Dab-D-Phe-L-Leu-L-Dab-L-Dab-L-Leu]] ({Decanoyl(3R-OH)}-[dOrn][Dab][Dab][dF]L[Dab][Dab]L; lactam 2-C)		16 µg/mL (≈ 15.1 µM)	2 µg/mL (≈ 1.89 µM)			4 µg/mL (≈ 3.78 µM)				4 µg/mL (≈ 3.78 µM)	> 300 µM		MIC, E. coli ATCC 25922 (E. coli ATCC 25922): 8 µg/mL (≈ 7.56 µM); MIC, A. baumannii ATCC 19606 (A. baumannii ATCC 19606): 16 µg/mL (≈ 15.1 µM); MIC, K. pneumoniae ATCC 13883 (K. pneumoniae ATCC 13883): 8 µg/mL (≈ 7.56 µM); MIC, K. pneumoniae ATCC BAA-2146, NDM-1 pos [3]: 8 µg/mL (≈ 7.56 µM); MIC P. aeruginosa GN_043, PmxR ([4]; Table 6, polymyxin-resistant): 2 µg/mL (≈ 1.89 µM); MIC, P. aeruginosa ATCC 27853 (P. aeruginosa ATCC 27853): 2 µg/mL (≈ 1.89 µM); MIC, S. aureus ATCC 25923, MSSA [5]: 32 µg/mL (≈ 30.2 µM); MIC, K. pneumoniae ATCC 700603, MDR [6]: 8 µg/mL (≈ 7.56 µM)
CCCCCCC[C@@H](O)CC(=O)N[C@H](CN)C(=O)N[C@H]1CCNC(=O)[C@H](CC(C)C)NC(=O)[C@H](CCN)NC(=O)[C@H](CCN)NC(=O)[C@H]([C@@H](C)O)NC(=O)[C@@H](Cc2ccccc2)NC(=O)[C@H](CCN)NC1=O [compound 9295, 3(R)OH-nC9CO-D-Dap-cyc[L-Dab-L-Dab-D-Phe-L-Thr-L-Dab-L-Dab-L-Leu]] ({Decanoyl(3R-OH)}-[dDap][Dab][Dab][dF]T[Dab][Dab]L; lactam 2-C)	2 µg/mL (≈ 1.96 µM)	4 µg/mL (≈ 3.93 µM)	4 µg/mL (≈ 3.93 µM)	4 µg/mL (≈ 3.93 µM)	4 µg/mL (≈ 3.93 µM)	4 µg/mL (≈ 3.93 µM)	4 µg/mL (≈ 3.93 µM)	2 µg/mL (≈ 1.96 µM)	4 µg/mL (≈ 3.93 µM)	2 µg/mL (≈ 1.96 µM)	> 300 µM	2 µg/mL (≈ 1.96 µM)	
CCCCCCC[C@@H](O)CC(=O)N[C@H](CCN)C(=O)N[C@H]1CCNC(=O)[C@H](CC(C)C)NC(=O)[C@H](CCN)NC(=O)[C@H](CCN)NC(=O)[C@H]([C@@H](C)O)NC(=O)[C@@H](Cc2ccccc2)NC(=O)[C@H](CCN)NC1=O [compound 9289, 3(R)OH-nC9CO-D-Dab-cyc[L-Dab-L-Dab-D-Phe-L-Thr-L-Dab-L-Dab-L-Leu]] ({Decanoyl(3R-OH)}-[dDab][Dab][Dab][dF]T[Dab][Dab]L; lactam 2-C)	2 µg/mL (≈ 1.94 µM)	>32 µg/mL	>32 µg/mL	2 µg/mL (≈ 1.94 µM)	2 µg/mL (≈ 1.94 µM)	>32 µg/mL	2 µg/mL (≈ 1.94 µM)	1 µg/mL (≈ 0.969 µM)	1 µg/mL (≈ 0.969 µM)	>32 µg/mL	> 300 µM	>32 µg/mL	
CCCCCCC[C@@H](O)CC(=O)N[C@H](CN)C(=O)N[C@H]1CCNC(=O)[C@H](CC(C)C)NC(=O)[C@H](CCN)NC(=O)[C@H](CCN)NC(=O)[C@H](CCC)NC(=O)[C@@H](Cc2ccccc2)NC(=O)[C@H](CCN)NC1=O [compound 9293, 3(R)OH-nC9CO-D-Dap-cyc[L-Dab-L-Dab-D-Phe-L-NorVal-L-Dab-L-Dab-L-Leu]] ({Decanoyl(3R-OH)}-[dDap][Dab][Dab][dF][Nva][Dab][Dab]L; lactam 2-C)	4 µg/mL (≈ 3.94 µM)	4 µg/mL (≈ 3.94 µM)	4 µg/mL (≈ 3.94 µM)	8 µg/mL (≈ 7.87 µM)	4 µg/mL (≈ 3.94 µM)	2 µg/mL (≈ 1.97 µM)	4 µg/mL (≈ 3.94 µM)	2 µg/mL (≈ 1.97 µM)	4 µg/mL (≈ 3.94 µM)	2 µg/mL (≈ 1.97 µM)	> 300 µM	1 µg/mL (≈ 0.984 µM)	
CCCCCCCCCCCC(=O)N[C@H](CN)C(=O)N[C@H]1CCNC(=O)[C@H](CC(C)C)NC(=O)[C@H](CCN)NC(=O)[C@H](CCN)NC(=O)[C@H](CC(C)C)NC(=O)[C@@H](Cc2ccccc2)NC(=O)[C@H](CCN)NC1=O [compound 9297, nC11CO-D-Dap-cyc[L-Dab-L-Dab-D-Phe-L-Leu-L-Dab-L-Dab-L-Leu]] (Lauroyl-[dDap][Dab][Dab][dF]L[Dab][Dab]L; lactam 2-C)	2 µg/mL (≈ 1.92 µM)	8 µg/mL (≈ 7.67 µM)	8 µg/mL (≈ 7.67 µM)	16 µg/mL (≈ 15.3 µM)	4 µg/mL (≈ 3.84 µM)	8 µg/mL (≈ 7.67 µM)	8 µg/mL (≈ 7.67 µM)	4 µg/mL (≈ 3.84 µM)	4 µg/mL (≈ 3.84 µM)	8 µg/mL (≈ 7.67 µM)	33 µM	2 µg/mL (≈ 1.92 µM)	
CCCCCCC[C@@H](O)CC(=O)N[C@H](CN)C(=O)N[C@H]1CCNC(=O)[C@H](CC(C)C)NC(=O)[C@H](CCN)NC(=O)[C@H](CCN)NC(=O)[C@H](CCCC)NC(=O)[C@@H](Cc2ccccc2)NC(=O)[C@H](CCN)NC1=O [compound 9294, 3(R)OH-nC9CO-D-Dap-cyc[L-Dab-L-Dab-D-Phe-L-NorLeu-L-Dab-L-Dab-L-Leu]] ({Decanoyl(3R-OH)}-[dDap][Dab][Dab][dF][Nle][Dab][Dab]L; lactam 2-C)	4 µg/mL (≈ 3.88 µM)	4 µg/mL (≈ 3.88 µM)	4 µg/mL (≈ 3.88 µM)	8 µg/mL (≈ 7.76 µM)	4 µg/mL (≈ 3.88 µM)	2 µg/mL (≈ 1.94 µM)	4 µg/mL (≈ 3.88 µM)	2 µg/mL (≈ 1.94 µM)	4 µg/mL (≈ 3.88 µM)	2 µg/mL (≈ 1.94 µM)	193 µM	1 µg/mL (≈ 0.971 µM)	
